{"source": "paper PMC12566971", "about": "“Polyprenylated Acylphloroglucinols from Hypericum rochelii and Hypericum olympicum—Cytotoxic Effects on Non-Tumorigenic Cell Lines and Antibacterial Potential” (Pharmaceuticals, 2025)", "key": {"CCL-1 cell line": {"tested_on": "CCL-1 cell line", "experiment": "Live-cell imaging with Hoechst for apoptosis detection", "type": "cell-based", "details": "positive control, 5 to 72 h", "experimental": "Cell suspension was seeded in the same manner as for MTT, but 50 µL per well in 96-well clear bottom plates. […] For the hypertonic buffer, the exposure time was 2 h, and the cells were plated at twice the concentration as for the MTT and cytopathic tests in order to comply with the kit protocol.\nAt least two wells were seeded as replicates, and at least two photographs were taken for all samples and treatments, stained with dyes or not."}, "unspecified fibroblasts": {"tested_on": "unspecified fibroblasts", "details": "up to 30 μg/mL for 24 h, ref [93]; cited from earlier work"}, "breast cancer cell line": {"tested_on": "breast cancer cell line", "parameters": "method as in PMID 26865836", "details": "24 h, ref [93]; cited from earlier work"}, "HT-22 and SH-SY5Y cells": {"tested_on": "HT-22 and SH-SY5Y cells", "details": "concentration where viability was restored to about 75%, ref [103]; read-out: Effective concentration 50 (EC50), neuroprotection; cited from earlier work"}, "[1]": {"tested_on": "panel of cancer cell lines", "parameters": "method as in PMID 39454890", "details": "ref [48]; read-out: IC50 against a panel of cancer cell lines; cited from earlier work"}, "Staphylococcus aureus [2]": {"tested_on": "Staphylococcus aureus", "details": "ref [4],[29]; cited from earlier work"}, "Streptococcus pyogenes [3]": {"tested_on": "Streptococcus pyogenes", "details": "ref [4],[29]; cited from earlier work"}, "CCL-1": {"tested_on": "CCL-1", "experiment": "MTT assay for cytotoxicity", "type": "cell-based, murine", "experimental": "(§1) The MTT assay was performed according to Annex C, ISO 10993-5 [56] as in [116]. The panel of non-tumorigenic cell lines consisted of one murine (CCL-1 fibroblasts, which are recommended as a standard for cytotoxicity evaluation in Annex C of ISO 10993-5 [56]) and four human cell lines—HaCaT (immortalized epidermal keratinocytes), HGF (gingival fibroblasts), HEK-293 (embryonic cells from kidney epithelium), and HEPG2 (hepatoblastoma). Although technically a cancer cell line, HEPG2 is non-tumorigenic and retains many hepatocyte-related features in its proteome and a high degree of morphological and functional differentiation, also being a stage one hepatoblastoma.\n(§2) CCL-1 was purchased from ATCC and HaCaT and HGF were bought from CLS Cell Lines Service (GmbH, Eppelheim, Germany). HEK-293 and HEPG2 were obtained from DSMZ. The cell culture medium for HaCaT and HEPG2 was Dulbecco’s Modified Eagle Medium (DMEM) with 4.5 g/L glucose (DMEM-HA). For HGF it was DMEM/F-12 (DMEM-12-A, a 1:1 mixture of DMEM and Ham’s F-12 medium). The cell medium for CCL-1 and HEK-293 was Eagle’s Minimum Essential Medium (MEM) (MEM-A). Ten percent heat-inactivated fetal bovine serum (FBS) was added to all media but to the one for the CCL-1 cells, to which 10% heat-inactivated horse serum was added. All media were supplemented with 2 mM L-glutamine and Penicillin/Streptomycin (Pen/Strep, 100×). The cell culture media, sera, and additives were from Capricorn Scientific (Düsseldorf, Germany).\n(§3) GraphPad Prism software version 9 (GraphPad Software Inc., San Diego, CA, USA) was used to calculate the IC50 values from the MTT assays as in [116], as well as the MTC values, and the ELISA standard curves. The MTC values are, according to ISO 10993-5, the maximum concentration at which at least 70% of the cells are viable (nonlin fit, range)."}, "[4]": {"tested_on": "Human gingival fibroblasts (HGF)", "experiment": "MTT assay for cytotoxicity", "type": "cell-based", "experimental": "as §1, §2, §3"}, "[5]": {"tested_on": "Human embryonic kidney-293 (HEK-293)", "experiment": "MTT assay for cytotoxicity", "type": "cell-based", "experimental": "as §1, §2, §3"}, "[6]": {"tested_on": "Pseudomonas aeruginosa PAO1", "experiment": "MIC and MBC evaluation (broth microdilution, agar plate assay)", "type": "cell-based", "experimental": "(§4) The MIC and MBC assessment on the pathogenic bacteria and the candidate probiotic lactic acid bacteria was carried out by the broth microdilution assay (BMD) and the agar plate assay, respectively, as described in [4]. The metabolic (dehydrogenase) activity of the lactic acid bacteria was assessed as described in [4].\n(§5) P. aeruginosa PAO1 ATCC 15692 was purchased from the American Type Cell Culture Collection (ATCC, Manassas, VA, USA). S. mutans DSM 20523 was bought from the German Collection of Microorganisms and Cell Cultures (DSMZ GmbH, Braunschweig, Germany). All other bacteria and strains were purchased as described in [4]."}, "Streptococcus pyogenes [7]": {"tested_on": "Streptococcus pyogenes", "experiment": "MIC and MBC evaluation (broth microdilution, agar plate assay)", "type": "cell-based", "details": "for MBC/MIC ratio, S. pyogenes: bactericidal if ≤ 4, bacteriostatic if > 4", "experimental": "as §4, §5"}, "Enterococcus faecalis [8]": {"tested_on": "Enterococcus faecalis", "experiment": "MIC and MBC evaluation (broth microdilution, agar plate assay)", "type": "cell-based", "details": "for MBC/MIC ratio, E. faecalis: bactericidal if ≤ 4, bacteriostatic if > 4", "experimental": "as §4, §5"}, "Staphylococcus aureus [9]": {"tested_on": "Staphylococcus aureus", "experiment": "MIC and MBC evaluation (broth microdilution, agar plate assay)", "type": "cell-based", "experimental": "as §4, §5"}, "[10]": {"tested_on": "Methicillin-Resistant S. aureus (MRSA)", "experiment": "MIC and MBC evaluation (broth microdilution, agar plate assay)", "type": "cell-based, Staphylococcus aureus", "experimental": "as §4, §5"}, "[11]": {"tested_on": "Methicillin-Resistant S. aureus (MRSA)", "details": "ref [4],[29]; cited from earlier work"}, "Enterococcus faecalis [12]": {"tested_on": "Enterococcus faecalis", "details": "ref [4],[29]; cited from earlier work"}, "HEPG2": {"tested_on": "HEPG2", "experiment": "MTT assay for cytotoxicity", "type": "cell-based, human", "experimental": "as §1, §2, §3"}, "HaCaT": {"tested_on": "HaCaT", "experiment": "MTT assay for cytotoxicity", "type": "cell-based, human", "experimental": "as §1, §2, §3"}, "Streptococcus mutans": {"tested_on": "Streptococcus mutans", "experiment": "MIC and MBC evaluation (broth microdilution, agar plate assay)", "type": "cell-based", "experimental": "as §4, §5"}, "[13]": {"details": "bactericidal if ≤ 4, bacteriostatic if > 4"}}}
{"compound": "COc1cccc2c1C(=O)c1c(O)c3c(c(O)c1C2=O)C[C@@](O)(C(C)=O)C[C@@H]3O[C@H]1C[C@H](N)[C@H](O)[C@H](C)O1", "note": "[daunorubicin, reference compound]", "values": [{"measurement": "Highly condensed and shrunken nuclei (marker of apoptosis)", "setting": "CCL-1 cell line", "result": "not in samples treated with daunorubicin"}]}
{"compound": "Cc1cc(O)c2c(=O)c3c(O)cc(O)c4c5c(O)cc(O)c6c(=O)c7c(O)cc(C)c8c1c2c(c34)c(c78)c65", "note": "[hypericin]", "values": [{"measurement": "Effect on cell survival of fibroblasts", "setting": "unspecified fibroblasts", "result": "did not have a significant effect"}, {"measurement": "IC50 for a breast cancer cell line", "setting": "breast cancer cell line", "result": 5, "unit": "µg/mL"}]}
{"compound": "c1cc2c(cc1[C@H]1OC[C@H]3[C@@H]1CO[C@@H]3c1ccc3c(c1)OCO3)OCO2", "note": "[sesamine]", "values": [{"measurement": "EC50", "setting": "HT-22 and SH-SY5Y cells", "result": 2.85, "unit": "µM"}]}
{"compound": "Cerastioside A", "values": [{"measurement": "IC50", "setting": "[1]", "result": "107 to 198", "unit": "µM"}]}
{"compound": "Olympiforin A", "values": [{"measurement": "MIC on bacteria, S. aureus", "setting": "Staphylococcus aureus [2]", "result": 0.78, "unit": "µg/mL"}, {"measurement": "MIC on bacteria, S. pyogenes", "setting": "Streptococcus pyogenes [3]", "result": 12.5, "unit": "µg/mL"}, {"measurement": "Maximum tolerated concentration (MTC), CCL-1", "setting": "CCL-1", "result": 3.27, "unit": "µg/mL"}, {"measurement": "IC50, CCL-1", "setting": "CCL-1; MTT assay", "result": 6.13, "unit": "µg/mL"}, {"measurement": "IC50", "setting": "CCL-1; converted to µM", "result": 12.3, "unit": "µM"}, {"measurement": "Maximum tolerated concentration (MTC), HGF", "setting": "[4]", "result": 16.78, "unit": "µg/mL"}, {"measurement": "IC50, HGF", "setting": "[4]; MTT assay", "result": 19.44, "unit": "µg/mL"}, {"measurement": "IC50", "setting": "[4]; converted to µM", "result": 39.1, "unit": "µM"}, {"measurement": "Maximum tolerated concentration (MTC), HEK-293", "setting": "[5]", "result": 0.41, "unit": "µg/mL"}, {"measurement": "IC50, HEK-293", "setting": "[5]; MTT assay", "result": 0.69, "unit": "µg/mL"}, {"measurement": "IC50", "setting": "[5]; converted to µM", "result": 1.39, "unit": "µM"}, {"measurement": "MBC, Pseudomonas aeruginosa PAO1", "setting": "[6]", "result": 2713, "unit": "µg/mL"}, {"measurement": "MIC, Pseudomonas aeruginosa PAO1", "setting": "[6]", "result": 1356, "unit": "µg/mL"}, {"measurement": "MBC", "setting": "Streptococcus pyogenes [7]", "result": 1008, "unit": "µM"}, {"measurement": "MBC, Streptococcus pyogenes", "setting": "Streptococcus pyogenes [7]", "result": 500, "unit": "µg/mL"}, {"measurement": "MBC/MIC ratio, S. pyogenes", "setting": "Streptococcus pyogenes [7]", "result": 40}, {"measurement": "MBC", "setting": "Enterococcus faecalis [8]", "result": 252, "unit": "µM"}, {"measurement": "MBC, Enterococcus faecalis", "setting": "Enterococcus faecalis [8]", "result": 125, "unit": "µg/mL"}, {"measurement": "MBC/MIC ratio, E. faecalis", "setting": "Enterococcus faecalis [8]", "result": 10}, {"measurement": "Minimal bactericidal concentration (MBC), Staphylococcus aureus", "setting": "Staphylococcus aureus [9]", "result": 25, "unit": "µg/mL"}, {"measurement": "MBC/MIC ratio, S. aureus", "setting": "Staphylococcus aureus [9]; [13]", "result": 32}, {"measurement": "MBC", "setting": "Staphylococcus aureus [9]; read-out: Minimal bactericidal concentration (MBC), Staphylococcus aureus", "result": 50, "unit": "µM"}, {"measurement": "MBC", "setting": "[10]", "result": 171, "unit": "µM"}, {"measurement": "MBC, Methicillin-Resistant S. aureus (MRSA)", "setting": "[10]", "result": 85, "unit": "µg/mL"}, {"measurement": "MBC/MIC ratio, MRSA", "setting": "[10]; [13]", "result": 7}, {"measurement": "MIC on bacteria, MRSA", "setting": "[11]", "result": 12.5, "unit": "µg/mL"}, {"measurement": "MIC on bacteria, E. faecalis", "setting": "Enterococcus faecalis [12]", "result": 12.5, "unit": "µg/mL"}, {"measurement": "Maximum tolerated concentration (MTC), HEPG2", "setting": "HEPG2", "result": 2.51, "unit": "µg/mL"}, {"measurement": "IC50, HEPG2", "setting": "HEPG2; MTT assay", "result": 6.87, "unit": "µg/mL"}, {"measurement": "IC50", "setting": "HEPG2; converted to µM", "result": 13.8, "unit": "µM"}, {"measurement": "Maximum tolerated concentration (MTC), HaCaT", "setting": "HaCaT", "result": 0.47, "unit": "µg/mL"}, {"measurement": "IC50, HaCaT", "setting": "HaCaT; MTT assay", "result": 1.33, "unit": "µg/mL"}, {"measurement": "IC50", "setting": "HaCaT; converted to µM", "result": 2.68, "unit": "µM"}]}
{"compound": "Penicillin [reference compound]", "values": [{"measurement": "MBC for S. mutans", "setting": "Streptococcus mutans", "result": 2, "unit": "µg/mL"}, {"measurement": "MIC for S. mutans", "setting": "Streptococcus mutans", "result": 0.03, "unit": "µg/mL"}, {"measurement": "MBC/MIC ratio, Streptococcus mutans", "setting": "Streptococcus mutans; [13]", "result": 66}, {"measurement": "MBC, Streptococcus pyogenes", "setting": "Streptococcus pyogenes [7]", "result": 0.25, "unit": "µg/mL"}, {"measurement": "MBC/MIC ratio, S. pyogenes", "setting": "Streptococcus pyogenes [7]", "result": 3}, {"measurement": "MBC, Enterococcus faecalis", "setting": "Enterococcus faecalis [8]", "result": 20, "unit": "µg/mL"}, {"measurement": "MBC/MIC ratio, E. faecalis", "setting": "Enterococcus faecalis [8]", "result": 8}]}
